In patent US20030207886A1, “Preparation containing quinoxaline derivatives” (priority 2000, published 2003):

Experiment: Maxima of UV-A and UV-B absorption of quinoxaline derivatives in 2-propanol
Format: physicochemical
Conditions: 1 mg of substance per 100 ml of solvent; for UV-A (400 320 nm) Max. abs.: absorbance at UV-A maximum; for UV-B (280 320 nm) Max. abs.: absorbance at UV-B maximum; for UV-A (400 320 nm) λ [nm]: wavelength of UV-A maximum; for UV-B (280 320 nm) λ [nm]: wavelength of UV-B maximum
Procedure: The measurement was carried out in 2-propanol at a concentration of 1 mg of substance per 100 ml of solvent.

| UV-A (400 320 nm) Max. abs. | UV-B (280 320 nm) Max. abs. | UV-A (400 320 nm) λ [nm] | UV-B (280 320 nm) λ [nm] | Structure (SMILES) |
| --- | --- | --- | --- | --- |
| 0.281 | 0.679 | 386.1 nm | 275.6 nm | COc1cc(Nc2cnc3ccccc3n2)cc(OC)c1OC |
| 0.427 | – | 353.4 nm | – | Nc1nc2ccccc2nc1Cl |
| 0.533 | – | 364.8 nm | – | CC(=O)c1ccn2c(c1)nc1nc3ccccc3nc12 |
| 0.424 | – | 395.4 nm | – | O=C(c1ccccc1)c1ccccc1Nc1cnc2ccccc2n1 |
| 0.378 | 1.141 | 374.1 nm | 297.2 nm | O=C(O)c1ccc(Nc2cnc3ccccc3n2)cc1 |
| 1.2265 | – | 328.5 nm | – | CCOC(=O)c1nc2ccccc2nc1Nc1ccc(C(C)=O)cc1 |
| – | 0.6004 | – | 281.5 nm | O=c1[nH]c2ccccc2nc1/C=C/C=C/c1ccccc1 |
| 0.1187 | 0.4067 | 381.5 nm | 287.0 nm | CCOC(=O)c1nc2ccccc2nc1Nc1cc(F)c(F)cc1C(=O)O |
| 0.555 | 1.262 | 374.3 nm | 306.7 nm | CC(C)OC(=O)c1ccc(Nc2cnc3ccccc3n2)cc1 |
| – | 0.3011 | – | 310.0 nm | CC(=O)c1nc2ccccc2nc1C(C)=O |
| – | 0.5569 | – | 291.0 nm | CCC(CC)COC(=O)c1ccc(Nc2cnc3ccccc3n2)c(O)c1 |
| 0.306 | 0.837 | 386.9− nm | 291.1 nm | COc1ccc(Nc2cnc3ccccc3n2)cc1 |
| 0.456 | 0.455 | 380.1 nm | 300.1 nm | COc1cc(Nc2cnc3ccccc3n2)c(C(=O)O)cc1OC |
| 0.7687 | – | 341.0 nm | – | c1ccc2nc(-c3cnc4ccccc4n3)cnc2c1 |
| 0.4113 | – | 354 nm | – | Brc1ccc2nc3nc4ccccc4nc3n2c1 |
| – | 0.5713 | – | 295.0 nm | CCOC(=O)c1nc2ccccc2nc1Nc1cc(OC)c(OC)cc1C(=O)O |
| 0.325 | 0.452 | 376.8 nm | 303.8 nm | O=C(O)c1ccc(Nc2nc3ccccc3nc2-c2ccccc2)cc1 |
| 0.3747 | – | 349.5 nm | – | COC(=O)CCc1ccc2nc3nc4ccccc4nc3n2c1 |
| 0.622 | 1.062 | 374.9 nm | 314.7 nm | CC(=O)c1ccc(Nc2cnc3ccccc3n2)cc1 |
| – | 1.270 | – | 311.5 nm | CCOC(=O)c1nc2ccccc2nc1Nc1ccc(C(=O)O)cc1 |
| 0.262 | – | 359.8 nm | – | FC(F)(F)c1cc(Nc2cnc3ccccc3n2)cc(C(F)(F)F)c1 |

| UV-A (400 320 nm) Max. abs. | UV-B (280 320 nm) Max. abs. | UV-A (400 320 nm) λ [nm] | UV-B (280 320 nm) λ [nm] | Structure (SMILES) |
| --- | --- | --- | --- | --- |
| – | 0.3327 | – | 316.0 nm | Cc1ccc(/C=C/c2nc3ccccc3nc2/C=C/c2ccc(C)cc2)cc1 |
| 0.1731 | – | 329.0 nm | – | O=C(/C=C/c1ccccc1)c1cnc2ccccc2n1 |
| 0.248 | 0.757 | 365.2 nm | 280.7 nm | Clc1ccc(Nc2cnc3ccccc3n2)c(Cl)c1 |
| 0.469 | – | 386.3 nm | – | O=C(OC/C=C/c1ccccc1)c1ccccc1Nc1cnc2ccccc2n1 |
| 0.411 | – | 348.3 nm | – | c1ccc2nc3c(nc2c1)nc1ccccn13 |
| 0.319 | 0.887 | 372.8 nm | 286.9 nm | O=C(O)c1cc(Nc2cnc3ccccc3n2)cc(C(=O)O)c1 |
| 0.5101 | 0.4556 | 381.0 nm | 305.0 nm | O=C(/C=C/c1ccc2c(c1)OCO2)c1cnc2ccccc2n1 |
| – | 0.837 | – | 302.9 nm | O=C(O)c1ccc(NCc2cnc3ccccc3n2)cc1 |
| – | 0.330 | – | 300.0 nm | O=C(c1ccccc1)c1cnc2ccccc2n1 |
| 0.342 | 0.849 | 381.9 nm | 305.3 nm | CC(C)OC(=O)c1ccc(Nc2nc3ccccc3nc2-c2ccccc2)cc1 |
| 0.4443 | 0.8366 | 385.0 nm | 294.0 nm | C(#Cc1nc2ccccc2nc1C#Cc1ccccc1)c1ccccc1 |
| 0.506 | 1.172 | 374.3 nm | 306.3 nm | CC(C)(C)OC(=O)c1ccc(Nc2cnc3ccccc3n2)cc1 |
| 0.173 | – | 335.0 nm | – | Clc1nc2ccccc2nc1-c1ccccc1 |
| 0.7324 | – | 388.5 nm | – | O=c1[nH]c2ccccc2nc1/C=C/c1ccccc1 |
| – | 0.966 | – | 289.3 nm | Fc1cc(F)c(N(c2cnc3ccccc3n2)c2cnc3ccccc3n2)c(F)c1 |
| – | 0.2183 | – | 290.0 nm | O=C(O)c1ccc(CNc2nc3ccccc3nc2Cl)cc1 |
| 0.360 | 0.373 | 365.0 nm | 305.0 nm | O=c1[nH]c2ccccc2nc1-c1ccccc1 |
| 0.2587 | – | 320.0 nm | – | c1ccc2nc(Oc3cnc4ccccc4n3)cnc2c1 |
| 0.536 | – | 356.1 nm | – | CCc1ccn2c(c1)nc1nc3ccccc3nc12 |
| 0.192 | – | 359.0 nm | – | FC(F)(F)c1cc(CNc2cnc3ccccc3n2)cc(C(F)(F)F)c1 |
| 0.322 | 0.789 | 368.3 nm | 287.7 nm | COC(=O)c1cc(Nc2cnc3ccccc3n2)cc(C(=O)OC)c1 |

| UV-A (400 320 nm) Max. abs. | UV-B (280 320 nm) Max. abs. | UV-A (400 320 nm) λ [nm] | UV-B (280 320 nm) λ [nm] | Structure (SMILES) |
| --- | --- | --- | --- | --- |
| 0.4660 | – | 336.0 nm | – | Cc1ccc(/C=C/c2nc3ccccc3[nH]c2=O)cc1 |
| 0.7731 | – | 343.0 nm | – | CC(C)c1ccc(/C=C/C(=O)c2cnc3ccccc3n2)cc1 |
| – | 0.45 | – | 280.0 nm | CC(C)c1ccc(C(=O)c2nc3ccccc3nc2C(=O)c2ccc(C(C)C)cc2)cc1 |
| 0.5594 | – | 381.0 nm | – | O=C(O)c1ccc(Nc2cnc3ccccc3n2)c(O)c1 |
| 0.235 | 0.635 | 393.4 nm | 285.6 nm | COc1cc(Nc2nc3ccccc3nc2-c2ccccc2)c(C(=O)O)cc1OC |
| 0.2602 | – | 364.0 nm | – | c1ccc(CNc2cnc3ccccc3n2)cc1 |
| 0.446 | – | 329.8 nm | – | Fc1nc2ccccc2nc1N(c1ncccn1)c1nc2ccccc2nc1F |
| 0.245 | 0.279 | 355.8 nm | 290.0 nm | CCOC(=O)c1nc2ccccc2[nH]c1=O |
| 0.4130 | – | 354.0 nm | – | Nc1nc2ccccc2nc1NC(=O)c1cc(C(F)(F)F)cc(C(F)(F)F)c1 |
| – | 0.4672 | – | 291.0 nm | CC(C)(C)OC(=O)c1ccc(Nc2nc3ccccc3nc2Cl)cc1 |
| – | 0.3236 | – | 307.0 nm | CCC(=O)c1cnc2ccccc2n1 |
| – | 0.614 | – | 295.6 nm | CCOC(=O)c1nc2ccccc2nc1Nc1cc(OC)c(OC)c(OC)c1 |
| 0.4424 | – | 321.0 nm | – | Brc1cnc2ccccc2n1 |
| 0.1595 | – | 321.0 nm | – | Cc1ccc(S(=O)(=O)c2cnc3ccccc3n2)cc1 |
| 0.243 | – | 322.9 nm | – | CCOC(=O)c1nc2ccccc2nc1Cl |
| – | 0.6431 | – | 286.0 nm | Clc1nc2ccccc2nc1C#Cc1ccccc1 |
| 1.0497 | 0.6584 | 365.0 nm | 302.0 nm | O=C(/C=C/C=C/c1ccccc1)c1cnc2ccccc2n1 |
| 0.3076 | 0.756 | 380.0 nm | 307.0 nm | CCOC(=O)CCC(NC(=O)c1ccc(Nc2cnc3ccccc3n2)cc1)C(=O)OCC (centres unmarked) |
| 0.175 | 0.475 | 390.4 nm | 287.6 nm | COc1cc(Nc2nc3ccccc3nc2-c2ccccc2)cc(OC)c1OC |
| 0.5414 | 1.2839 | 375.0 nm | 306.0 nm | CCOC(=O)c1ccc(Nc2cnc3ccccc3n2)cc1 |

| Structure (SMILES) | UV-A (400 320 nm) Max. abs. | UV-B (280 320 nm) Max. abs. | UV-A (400 320 nm) λ [nm] | UV-B (280 320 nm) λ [nm] |
| --- | --- | --- | --- | --- |
| Cc1nc2ccc(Cl)cc2nc1C | 0.400 | – | 322.0 nm | – |
